Data reported in publication PMC11349198, “The activation cascade of the broad-spectrum antiviral bemnifosbuvir characterized at atomic resolution” (PLOS Biology, 2024).

Assays:
HINT1 = target: T1, HINT1 (Homo sapiens, UniProt P49773); test: ITC; format: binding; conditions: 1-site model
T1 construct: N-terminal 6xHis with TEV site, tag cut; E. coli; homodimer, 126 residues visible

ADALP1 = target: T2, ADALP1 (Homo sapiens, UniProt Q6DHV7); test: X-ray crystal structure, […] Å; format: binding; conditions: co-crystallized with AT-8003 (10 mM), pH 5.3 to 6.3; Zn2+; active site
T2 construct: gene MAPDA; N-terminal 6xHis with TEV site, tag cut; E. coli; monomer; Zn; crystals grown with trace alpha-chymotrypsin
T2 sequence (Q6DHV7 1-355): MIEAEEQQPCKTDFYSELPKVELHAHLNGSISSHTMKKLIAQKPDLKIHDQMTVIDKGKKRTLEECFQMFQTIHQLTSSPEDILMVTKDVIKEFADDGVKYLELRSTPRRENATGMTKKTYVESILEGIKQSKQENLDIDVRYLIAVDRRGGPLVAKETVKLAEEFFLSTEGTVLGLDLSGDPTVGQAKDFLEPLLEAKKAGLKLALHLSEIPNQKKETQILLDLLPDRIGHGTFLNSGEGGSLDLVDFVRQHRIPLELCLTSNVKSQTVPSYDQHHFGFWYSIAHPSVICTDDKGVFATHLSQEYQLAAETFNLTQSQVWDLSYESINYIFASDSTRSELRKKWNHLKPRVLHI

T1 sequence (P49773 whole entry): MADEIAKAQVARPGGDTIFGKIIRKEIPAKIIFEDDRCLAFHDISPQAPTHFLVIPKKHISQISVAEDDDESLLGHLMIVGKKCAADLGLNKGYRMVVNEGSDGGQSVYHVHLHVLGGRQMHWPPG

| SMILES | Ka (HINT1) | X-ray crystal structure, 2.44 Å (ADALP1) |
| --- | --- | --- |
| Nc1ncnc2c1ncn2[C@@H]1O[C@H](COP(=O)(O)O)[C@@H](O)[C@H]1O [AMP] | 1.7 10^4 |  |
| C[C@@]1(F)[C@H](O)[C@@H](COP(=O)(O)O)O[C@H]1n1cnc2c(=O)[nH]c(N)nc21 [AT-8001] |  | the product AT-8001 was found bound at the active site |
